Experiments:
Format in all cases: physicochemical
[1] = Absorption spectrum measurement; conditions: for Λabs. max: 0.1% DMSO as cosolvent; for maximum absorption wavelength: PBS (1% DMSO)
Method: The absorption spectrum of a […] PBS solution of comparative compound 2 (containing 0.1% DMSO as cosolvent) was measured.
The maximum absorption wavelength of compound 1 was 763 nm, and the maximum absorption wavelength of compound 4 was 732 nm.

[2] = Fluorescence spectrum / quantum efficiency of fluorescence (ICG in DMSO as standard); conditions: both water and organic solvents; excitation 760 nm
Method: The absorption spectra and fluorescence spectra (excitation wavelength 760 nm) of […] PBS, methanol, DMF, and chloroform solutions of comparative compound 1 (each containing 0.1% DMSO as cosolvent) were measured.

[3] = Changes over time in the absorption spectrum in water (PBS); conditions: PBS solution, 0.1% DMSO as cosolvent

Question: Which “absorption spectrum reached up to” value [1] does the source give for `Cc1ccccc1C1=C2C=C/C(=[N+]3/CCc4ccccc43)C=C2[Si](C)(C)c2cc(N3CCc4ccccc43)ccc21` [comparative compound 1, 2-Me-Si-QSY21] here?
Answer: up to 850 nm

Question: What about the Λabs. max ([1]; Chloroform) of the same compound?
Answer: 790 nm

Question: What about the Λabs. max ([1]; DMF) of the same compound?
Answer: 790 nm

Question: What about the Λabs. max ([1]; MeOH) of the same compound?
Answer: 779 nm

Question: What about the Λabs. max ([1]; PBS) of the same compound?
Answer: 764 nm

Question: What about the fluorescence quantum yield [2] of the same compound?
Answer: ≤ 0.001

Question: Which “change in absorption wavelength due to introduction of a sulfone group” value ([1]; PBS solution, 0.1% DMSO) does the source give for `Cc1ccccc1C1=C2C=C/C(=[N+]3/CCc4cc(S(=O)(=O)O)ccc43)C=C2[Si](C)(C)c2cc(N3CCc4cc(S(=O)(=O)O)ccc43)ccc21` [comparative compound 2, 2-Me-SO3H—Si-QSY21] here?
Answer: no change in absorption wavelength

Question: And the “changes over time in absorption in water (stability in water)” value (“changes over time in absorption in water” below) [3]?
Answer: a gradual decrease in absorption was observed in water

Question: Which maximum absorption wavelength [1] does the source give for `Cc1cccc(C)c1C1=C2C=C/C(=[N+]3/CCc4cc(S(=O)(=O)O)ccc43)C=C2[Si](C)(C)c2cc(N3CCc4cc(S(=O)(=O)O)ccc43)ccc21` [compound 1, 2,6-diMe-SO3H Indoline-Si-QSY21] here?
Answer: 763 nm

Question: And the “changes over time in absorption in water” value [3]?
Answer: no decrease in absorption in water was observed

Question: With `COc1cccc(OC)c1C1=C2C=C/C(=[N+]3/CCc4cc(S(=O)(=O)O)ccc43)C=C2[Si](C)(C)c2cc(N3CCc4cc(S(=O)(=O)O)ccc43)ccc21` [compound 2, 2,6-diOMe-SO3H Indoline-Si-QSY21] as the compound, how does the “changes over time in absorption in water” value [3] read?
Answer: no decrease in absorption in water was observed

Question: With `Cc1cccc(C)c1C1=C2C=C/C(=[N+]3/CCCc4cc(S(=O)(=O)O)ccc43)C=C2[Si](C)(C)c2cc(N3CCCc4cc(S(=O)(=O)O)ccc43)ccc21` [compound 4, 2,6-diMe-SO3H Tetrahydroquinoline-Si-QSY21] as the compound, how does the maximum absorption wavelength [1] read?
Answer: 732 nm

Source: patent publication US10004815B2, “Near-infrared quenching group” (priority 2013, dated 2018)
